Reference: PubChem BioAssay (NCI)
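In this assay, cells in 96-well plates receive the compound at five concentrations for 48 hours. Endpoints are linearly interpolated between the surrounding concentrations. GI50 = concentration required for 50% inhibition of growth. TGI: concentration producing complete growth inhibition.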

Legend:
Assay in all cases: NCI anticancer screen, dose series, 48 h
COLO 205 colon = tested on: COLO 205 colon
HCT-116 colon = tested on: HCT-116 colon
KM12 colon = tested on: KM12 colon
NCI-H460 lung = tested on: NCI-H460 lung
OVCAR-3 ovarian = tested on: OVCAR-3 ovarian
OVCAR-5 ovarian = tested on: OVCAR-5 ovarian
SF-268 CNS = tested on: SF-268 CNS
SK-MEL-2 melanoma = tested on: SK-MEL-2 melanoma
SR leukemia = tested on: SR leukemia
UO-31 renal = tested on: UO-31 renal

Compound	GI50 (COLO 205 colon)	TGI (COLO 205 colon)	GI50 (HCT-116 colon)	TGI (HCT-116 colon)	GI50 (KM12 colon)	TGI (KM12 colon)	GI50 (NCI-H460 lung)	TGI (NCI-H460 lung)	GI50 (OVCAR-3 ovarian)	TGI (OVCAR-3 ovarian)	GI50 (OVCAR-5 ovarian)	TGI (OVCAR-5 ovarian)	GI50 (SF-268 CNS)	TGI (SF-268 CNS)	GI50 (SK-MEL-2 melanoma)	TGI (SK-MEL-2 melanoma)	GI50 (SR leukemia)	TGI (SR leukemia)	GI50 (UO-31 renal)	TGI (UO-31 renal)
CC[CH2][Sn]([Cl])([Cl])[CH2]CC	8.53 µM	22.5 µM	13.1 µM	25.8 µM	16 µM	30.9 µM	17.2 µM	34.3 µM	12.9 µM	26.1 µM	16.6 µM	31 µM	9.63 µM	22.5 µM	10.8 µM	25.6 µM	3.38 µM	80.7 µM	4.47 µM	19.5 µM
O=C(NNC(=O)c1ccncc1)c1ccncc1		> 100 µM		> 100 µM		> 100 µM		> 100 µM		> 100 µM		> 100 µM		> 100 µM		> 100 µM		> 100 µM		> 100 µM
COc1ccc(C2=C(c3cc(OC)c(OC)c(OC)c3)C(=O)CC2)cc1	0.218 µM	1.17 µM	0.156 µM	> 100 µM	0.0719 µM		0.224 µM		0.0598 µM	0.242 µM	0.662 µM	> 100 µM	0.668 µM	> 33.8 µM	0.971 µM		0.0335 µM	> 100 µM	3.75 µM	> 100 µM
CC1=C([Se]CC(OC(=O)[C@@H](CO)NC(=O)OC(C)(C)C)C(=O)NC(C)(C)C)C(=O)c2ccccc2C1=O (stereo not given in full)	1.83 µM	3.3 µM	1.46 µM	2.79 µM	1.5 µM	2.89 µM	0.456 µM	1.8 µM	1.8 µM	3.19 µM	2.1 µM	3.73 µM	1.89 µM	3.34 µM	2.2 µM	4.57 µM			1.45 µM	2.94 µM
NC(=O)C(NC=O)c1ccccc1 (stereo not given)		> 100 µM		> 100 µM		> 100 µM		> 100 µM		> 100 µM				> 100 µM				> 100 µM		> 100 µM
Cc1cc(C(=O)N2CCN(Cc3ccccc3)CC2)c(C)o1				> 100 µM		> 100 µM		> 100 µM		> 100 µM		> 100 µM		> 100 µM				> 100 µM		> 100 µM
CNC(C)C(=O)N[C@H](C(=O)N1CCC[C@@H]1CN(CCc1ccccc1)C(=O)C(F)(F)F)[C@H](C)OCC#CC#CCO[C@H](C)[C@H](NC(=O)[C@H](C)NC)C(=O)N1CCC[C@H]1CN(CCc1ccccc1)C(=O)C(F)(F)F (stereo not given in full)	1.42 µM	2.99 µM	1.43 µM	2.78 µM	1.71 µM	3.25 µM	1.83 µM	3.59 µM	1.42 µM	2.86 µM	1.88 µM	3.68 µM	1.94 µM	3.57 µM	< 0.01 µM	1.41 µM			2.14 µM	3.98 µM
O=C(CCCc1ccccn1)c1ccccc1		> 100 µM		> 100 µM				> 100 µM		> 100 µM		> 100 µM		> 100 µM		> 100 µM				> 100 µM
Cc1cc(NS(=O)(=O)c2ccc(NC(=O)c3cccc4c(Nc5ccc(S(=O)(=O)Nc6cc(C)on6)cc5)c5ccccc5nc34)cc2)no1		> 100 µM				> 100 µM		> 100 µM		> 100 µM		> 100 µM		> 100 µM		78.4 µM				> 100 µM
CN(C)CCN=Cc1c2ccccc2c(=O)n2c1oc1ccccc12					8.8 µM	21.7 µM	2.94 µM	11.7 µM	11.7 µM	24 µM	15.7 µM	30.5 µM	5.56 µM	20 µM	16.6 µM	48.2 µM	3.7 µM	> 100 µM	6.67 µM	28.6 µM
O=c1c2ccccc2c(=O)c2c1cc(Cl)c1[nH]c3c([nH]c12)c(Cl)cc1c(=O)c2ccccc2c(=O)c13		> 100 µM		> 100 µM		> 100 µM		> 100 µM		> 100 µM		> 100 µM		> 100 µM		> 100 µM				> 100 µM
N#CCC(=O)N/N=C1\C(=O)N(c2ccc(Cl)cc2)C(=O)C(=O)C1c1nc2ccccc2o1 (stereo not given)		> 100 µM		> 100 µM		> 100 µM		> 100 µM		> 100 µM				> 100 µM		> 100 µM		> 100 µM		> 100 µM
CC(=O)OC1C(CCl)OC(N=[N+]=[N-])C(OC(C)=O)C1OC(C)=O (stereo not given)		> 100 µM		> 100 µM		> 100 µM		> 100 µM		> 100 µM				> 100 µM		> 100 µM				> 100 µM
O=C(O)C1c2ccccc2C(C(=O)O)c2ccccc21 (stereo not given)		> 100 µM		> 100 µM		> 100 µM		> 100 µM				> 100 µM		> 100 µM		> 100 µM		> 100 µM		> 100 µM
CC(C)(C)[Si](C)(C)O/N=C\c1ccc(O[Si](C)(C)C(C)(C)C)cc1		> 100 µM		63 µM		> 100 µM		> 100 µM		50.9 µM		> 100 µM		> 100 µM		> 100 µM				> 100 µM
C=C1Oc2nc3ccccc3c(=O)n2C1(C)C		> 100 µM		> 100 µM		> 10 µM		> 100 µM		> 10 µM		> 100 µM		> 100 µM		> 100 µM				> 100 µM
C/C(=C\CCc1ccoc1)CC/C=C(\C)CCCN1CCC(CO)CC1	1.94 µM	3.98 µM	2.96 µM	10.4 µM	2.45 µM	5.41 µM	2.08 µM	4.37 µM	3.78 µM	13.7 µM	4.39 µM	18.6 µM	5.65 µM	19.4 µM			1.66 µM	4.29 µM	3.85 µM	16.7 µM
CC[O-].Cc1ccc2cccc([O-])c2n1.Cc1ccc2cccc([O-])c2n1.Cc1ccc2cccc([O-])c2n1.[Ti+4]	19.5 µM	39.8 µM	33.8 µM	> 100 µM	20.9 µM	74.8 µM	20.2 µM	> 100 µM	34.1 µM	> 100 µM	> 65 µM	> 100 µM	> 83.5 µM	> 100 µM	22.9 µM	> 57.5 µM			> 100 µM	> 100 µM
